Data set [1] can be described thus: Protein binding assay (HT dialysis), human plasma. The data set is classed as in vitro ADME. The following applies: pH 7.4, Mean ± SEM, n = 3, read-out: Fu Plasma (converted). The method, then: (§1) Unbound fractions of test compounds in plasma, brain homogenate and liver microsomes were determined using high-throughput dialysis (HT dialysis). Briefly, dialysis membranes were soaked in deionized water for 20 minutes and then in deionized water with 30% ethanol for 15 minutes and finally in phosphate buffer until use. Membranes were rinsed in phosphate buffer before assembling. The membranes were layered between teflon bars of dialysis assembly. Stock solutions of test compound/comparative compound were prepared at 10 mM in DMSO, diluted to 1 mM in acetonitrile and further diluted to 100 μM in mixture of water and acetonitrile (1:1 v/v). Human plasma (pool of 3) was prepared from human blood (3 donors) by centrifuging at 4000 rpm for 10 min at 4° C. Rat and dog blood were obtained on the day of the study and centrifuged to obtain plasma. Rat brains were isolated, cleaned and homogenized with 2 volumes of buffer (3 fold dilution). Liver microsomes were prepared at 0.5 mg/mL in phosphate buffer (100 mM, pH 7.4). The dialysate chambers were loaded with 150 μL of 100 mM phosphate buffer (pH 7.4) in triplicates. The matrix chambers were loaded with 150 μL of the plasma or brain homogenate or microsomal suspension spiked with test compound/comparative compound at a final concentration of 1 μM. 50 μL of the sample was removed from both the chambers at 0 h. The plate was sealed and incubated at 37° C. for 6 h at 100 rpm. After 6 h, 50 μL of the sample was removed from both the chambers. Equal volumes of buffer or human plasma/microsomal suspension were added to the plasma/microsomal and buffer samples respectively to create identical sample matrices for analysis. The samples were precipitated with 150 μL of acetonitrile containing fluoxetine as an internal standard. All the samples were centrifuged at 10000 rpm for 10 minutes at 4° C.

Data set [2] can be described thus: Protein binding assay (HT dialysis), rat liver microsomes. The following applies: pH 7.4, Rat liver microsomes 0.5 mg/mL, Mean ± SEM, n = 3, read-out: Fu Microsomes. Type of data set: in vitro ADME. The method, then:
as §1
(Liver microsomes are vesicles of endoplasmic reticulum, rich in cytochrome P450 enzymes.)

A short description of data set [3]: Protein binding assay (HT dialysis), dog liver microsomes. Type of data set: in vitro ADME. The following applies: pH 7.4, Dog liver microsomes 0.5 mg/mL, Mean ± SEM, n = 3, read-out: Fu Microsomes (converted). The procedure: as §1
A short description of data set [4]: Protein binding assay (HT dialysis), rat brain homogenate. The data set is classed as in vitro ADME. The following applies: pH 7.4, Mean ± SEM, n = 3, read-out: Fu Brain. The method, then: as §1
The nature of data set [5]: Protein binding assay (HT dialysis), human liver microsomes. The data set is classed as in vitro ADME. The following applies: pH 7.4, Human liver microsomes 0.5 mg/mL, Mean ± SEM, n = 3, read-out: Fu Microsomes (converted). The method, then: as §1
A short description of data set [6]: Protein binding assay (HT dialysis), rat plasma. The following applies: pH 7.4, Mean ± SEM, n = 3, read-out: Fu Plasma. Type of data set: in vitro ADME. The procedure: as §1
Data set [7] can be described thus: Protein binding assay (HT dialysis), dog plasma. The following applies: pH 7.4, Mean ± SEM, n = 3, read-out: Fu Plasma (converted). Type of data set: in vitro ADME. The method, then:
as §1

For data set [8], the target named is T1, human Muscarinic M1 receptor (Homo sapiens, UniProt P11229).
T1 sequence (P11229 1-460): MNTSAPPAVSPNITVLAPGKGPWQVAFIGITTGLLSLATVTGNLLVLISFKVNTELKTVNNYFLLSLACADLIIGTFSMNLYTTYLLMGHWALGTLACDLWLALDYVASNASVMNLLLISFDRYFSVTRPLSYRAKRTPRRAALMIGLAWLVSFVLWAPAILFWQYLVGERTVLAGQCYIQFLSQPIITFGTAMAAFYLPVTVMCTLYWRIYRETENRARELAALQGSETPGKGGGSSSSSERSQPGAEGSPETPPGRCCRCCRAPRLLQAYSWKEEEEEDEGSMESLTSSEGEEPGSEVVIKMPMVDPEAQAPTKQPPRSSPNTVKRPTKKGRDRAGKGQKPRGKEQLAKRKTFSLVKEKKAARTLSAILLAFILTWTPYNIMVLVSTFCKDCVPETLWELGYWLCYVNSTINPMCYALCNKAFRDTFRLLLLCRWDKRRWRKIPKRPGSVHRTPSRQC
Kind of data set: Allosteric potency EC50 for muscarinic M1 receptor, CHO pCRE-Luc reporter cell assay. Type of data set: cell-based. The following applies: in presence of EC20 of acetylcholine; CHO cells, luciferase reporter, 4 h. The procedure:
A stable CHO cell line expressing recombinant human Muscarinic M1 receptor and pCRE-Luc reporter system was used for cell-based assay. The assay offers a non-radioactive based approach to determine binding of a compound to GPCRs. In this specific assay, the level of intracellular cyclic AMP which is modulated by activation or inhibition of the receptor is measured. The recombinant cells harbor luciferase reporter gene under the control of cAMP response element.
The above cells were grown in 96 well clear bottom white plates in Hams F12 medium containing 10% fetal bovine serum (FBS). Prior to the addition of compounds or standard agonist, cells were serum starved overnight. Increasing concentrations of test compounds were added along with EC20 of acetylcholine in OptiMEM medium to the cells. The incubation was continued at 37° C. in CO2 incubator for 4 h. Medium was removed and cells were washed with phosphate buffered saline. The cells were lysed and luciferase activity was measured in a Luminometer. Luminescence units were plotted against the compound concentrations using Graphpad software. EC50 values of the compounds were defined as the concentration required in stimulating the luciferase activity by 50% in presence of EC20 of acetylcholine.
Background: Reporter assays use an easily measured gene product as a stand-in for the process of interest.

Data set [9] in a line: Rodent pharmacokinetic study. The data set is classed as in vivo, Male Wistar rats. The following applies: rat. The procedure:
Male Wistar rats (260±50 grams) were used as experimental animals. Animals were housed individually in polypropylene cage. Two days prior to study, male Wistar rats were anesthetized with isoflurane for surgical placement of jugular vein catheter. Rats were randomly divided for oral (3 mg/kg) and intravenous (i.v) (1 mg/kg) dosing (n=3/group) and fasted overnight before oral dosing (p.o.). However, rats allocated to intravenous (i.v.) dosing food and water was provided ad libitum.
At pre-determined point, blood was collected through jugular vein and replenished with an equivalent volume of normal saline. Collected blood was transferred into a labeled eppendorf tube containing 10 μL of heparin as an anticoagulant. Typically blood samples were collected at following time points: 0.08, 0.25, 0.5, 1, 2, 4, 6, 8, and 24 h post dose. Blood was centrifuged at 4000 rpm for 10 minutes. Plasma was separated and stored frozen at −80° C. until analysis. The concentrations of the test compounds were quantified in plasma by qualified LC-MS/MS method using suitable extraction technique. The test compounds were quantified in the calibration range around 1-1000 ng/mL in plasma. Study samples were analyzed using calibration samples in the batch and quality control samples spread across the batch.
Pharmacokinetic parameters Cmax, AUCt, T1/2, clearance and bioavailability (F) were calculated by non-compartmental model using standard non-compartmental model by using Phoenix WinNonlin 6.0.2 or 6.0.3 version Software package and the results are tabulated below.

Data set [10] in a line: Rodent brain penetration study. Type of data set: in vivo, Male Wistar rats. The following applies: male, Wistar, brain/plasma, po; rat, 3 mg/kg, p.o. @ 1.0 hr; read-out: Single dose Rat Brain Penetration (Cb/Cp). The procedure:
Male Wistar rats (260±40 grams) were used as experimental animals. Three animals were housed in each cage. Animals were given water and food ad libitum throughout the experiment and maintained on a 12 h light/dark cycle.
Brain penetration was determined in discrete manner in rats. One day prior to dosing day, male Wistar rats were acclimatized and randomly grouped according to their weight. At each time point (0.5, 1 and 2 h) n=3 animals were used.
The test compounds were suitably preformulated and administered orally at (free base equivalent) 3 mg/kg. Blood samples were removed via cardiac puncture by using isoflurane anesthesia. The animals were sacrificed to collect brain tissue. Plasma was separated and brain samples were homogenized and stored frozen at −20° C. until analysis. The concentrations of the test compounds in plasma and brain were determined using LC-MS/MS method.
The test compounds were quantified in plasma and brain homogenate by qualified LC-MS/MS method using suitable extraction technique. The test compounds were quantified in the calibration range of 1-500 ng/mL in plasma and brain homogenate. Study samples were analyzed using calibration samples in the batch and quality control samples spread across the batch.

Setting [11] is: male, Wistar, plasma, iv, i.v. 1 mg/kg.
Setting [12] is: male, Wistar, plasma, oral 3 mg/kg.

SMILES strings stand for the structures.

For the compound `COc1ccc(Cc2cc3c(cc2C)CN([C@H]2CCCC[C@@H]2O)C3=O)cc1` [Comparative compound, reference compound], the fraction unbound at 6 h, 1 μM in [1] was 0.0063; in data set [2] it was 0.551 ± 0.013; in [3] it was 0.709; in data set [4] it was 0.0022 ± 0.001; in data set [5], 0.48; in [6] it was 0.0141 ± 0.003. Also, the fraction unbound at 6 h, 1 μM in data set [7] was 0.0069.
As usually defined, the EC50 is the concentration at which the effect is half-maximal. In the case of `Cc1nc2c(cc1Cc1ccc(-c3cnn(C)c3)nc1)C(=O)N([C@H]1CCCC[C@@H]1O)C2` [Example 2, 6-(1S,2S-2-Hydroxycyclohexyl)-2-methyl-3-[2-(1-methyl-1H-pyrazol-4-yl)pyridin-5-ylmethyl]-6,7-dihydropyrrolo[3,4-b]pyridin-5-one], the EC50 in [8] was determined as 288 nM.
Regarding `Cc1nc2c(cc1Cc1ccc(-c3cscn3)cc1)C(=O)N([C@H]1CCCC[C@@H]1O)C2` [Example 4, 6-(1S,2S-2-Hydroxycyclohexyl)-2-methyl-3-(4-thiazol-4-ylbenzyl)-6,7-dihydropyrrolo[3,4-b]pyridin-5-one], the EC50 in data set [8] is 107 nM.
As usually defined, the AUC(0-t) is the area under the concentration-time curve up to a stated or last time point. Low values mean less exposure, high ones more exposure. The term clearance denotes a measure of how efficiently the substance is removed, as volume per time. Read a low clearance as a low capacity for elimination. A word on the half-life: it is how long it takes for the measured level to halve. High values mean slow decline, low ones rapid decline. As a reminder, the Cmax is the peak of the concentration-time curve. `Cc1nc2c(cc1Cc1ccc(F)cc1)C(=O)N([C@H]1CCCC[C@@H]1O)C2` [Example 9, 6-(1S,2S-2-Hydroxycyclohexyl)-2-methyl-3-(4-fluorobenzyl)-6,7-dihydropyrrolo[3,4-b]pyridin-5-one]: in [9] (setting [11]), the AUC(0-t) worked out at 1220 ± 25 ng·h/mL, the clearance worked out at 13.5 ± 0.3 mL/min/kg and the half-life was 1.3 ± 0.3 h. In addition, in data set [9] (setting [12]), the AUC(0-t) was determined as 1290 ± 387 ng·h/mL, the highest level (Cmax) was 592 ± 142 ng/mL and the half-life was 1.1 ± 0.4 h. The same compound displayed a F in [9] (oral 3 mg/kg vs i.v. 1 mg/kg) of 35 ± 11%. For the same compound, the Kp at 1 h in [10] stood at 0.25 ± 0.04. In addition, in [8], the EC50 was determined as 1500 nM.
On to `Cc1nc2c(cc1Cc1cccc(F)c1)C(=O)N([C@H]1CCCC[C@@H]1O)C2` [Example 10, 6-(1S,2S-2-Hydroxycyclohexyl)-2-methyl-3-(3-fluorobenzyl)-6,7-dihydropyrrolo[3,4-b]pyridin-5-one], for which the EC50 in data set [8] was 2780 nM.
Regarding `COc1ccc(Cc2cc3c(nc2C)CN(C2COCCC2O)C3=O)cc1` (centres unmarked) [Example 13, 6-(4-Hydroxytetrahydropyran-3-yl)-3-(4-methoxybenzyl)-2-methyl-6,7-dihydropyrrolo[3,4-b]pyridin-5-one], the concentration giving a half-maximal response (EC50) in data set [8] was 669 nM.
Still for that read-out and setting: to `COc1ccc(Cc2cc3c(nc2C)CCN([C@H]2CCCC[C@@H]2O)C3=O)cc1` [Example 14, 6-(1S,2S-2-Hydroxycyclohexyl)-2-methyl-3-(4-methoxybenzyl)-7,8-dihydro-6H-[1,6]naphthyridin-5-one] belongs 643 nM.
In the case of `Cc1nc(-c2ccc(Cc3cc4c(nc3C)CN(C3CCOCC3)C4=O)cc2)co1` [Example 16, 6-(Tetrahydropyran-4-yl)-2-methyl-3-[4-(2-methyl-oxazol-4-yl)-benzyl]-6,7-dihydropyrrolo[3,4-b]pyridin-5-one], the EC50 in data set [8] amounted to 1320 nM.
On the same count and under the same terms, the result for `Cc1nc2c(cc1Cc1cccc(Cl)c1)C(=O)N([C@H]1CCCC[C@@H]1O)CC2` [Example 18, 6-(1S,2S-2-Hydroxycyclohexyl)-2-methyl-3-(3-chlorobenzyl)-7,8-dihydro-6H-[1,6]naphthyridin-5-one] reads 774 nM; that for `Cc1nc2c(cc1Cc1ccc(F)c(F)c1)C(=O)N([C@H]1CCCC[C@@H]1O)CC2` [Example 19, 6-(1S,2S-2-Hydroxycyclohexyl)-2-methyl-3-(3,4-difluorobenzyl)-7,8-dihydro-6H-[1,6]naphthyridin-5-one], 972 nM.
The same measure, in the same setting: to `COc1cccc(Cc2cc3c(nc2C)CCN([C@H]2CCCC[C@@H]2O)C3=O)c1` [Example 24, 6-(1S,2S-2-Hydroxycyclohexyl)-2-methyl-3-(3-methoxybenzyl)-7,8-dihydro-6H-[1,6]naphthyridin-5-one] belongs 1210 nM; to `Cc1nc2c(cc1Cc1ccnc(F)c1)C(=O)N([C@H]1CCCC[C@@H]1O)C2` [Example 28, 6-(1S,2S-2-Hydroxycyclohexyl)-2-methyl-3-(2-fluoropyridin-4-ylmethyl)-6,7-dihydropyrrolo[3,4-b]pyridin-5-one], 929 nM.

The values above are taken from patent publication US12156871B2, “Substituted azacycles as muscarinic M1 receptor positive allosteric modulators” (SUVEN LIFE SCIENCES LIMITED, priority 2017, dated 2024).
